Reference: patent US10662146B2, “Prodrugs of fencamfamine” (Praxis Bioresearch, LLC, priority 2015, dated 2020)
Values joined by “and” are separate entries in the source; they are usually repeats but may differ in a detail not shown here. Equal values may be shown once. “Also recorded” adds a separate entry of the source. Read-outs that look alike come from different tables or passages of the source.

Legend:
[1] = Single dose oral PK study in male Sprague Dawley rats (plasma by LC-MS/MS); format: in vivo; details: for Plasma concentration of PRX-P4-003 / AUC% extrap of PRX-P4-003 / Tmax: mean; for Tmax: male, rat, in vivo
Method in brief: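 Fasted adult male Sprague Dawley rats (8-10 weeks) got a single oral dose of prodrug, as Tween 80/0.5% CMC suspension, equivalent to 5 mg/kg PRX-002 (up to 10 or 15 mg/kg in some studies). Retro-orbital K2EDTA blood was sampled over 24 h. Plasma fencamfamine was measured by LC-MS/MS.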

[2] = system: spontaneous locomotor activity; assay: Spontaneous locomotor activity (sLMA), oral administration; format: in vivo, Male Sprague-Dawley (SD) rats; details: p.o. 1, 5 or 10 mg/kg equivalent of PRX-002 (−), 60 min before 60 min test, vs vehicle
Protocol: Male Sprague-Dawley (SD) were housed in groups of three under controlled conditions. Water and food were available ad libitum. The rats were kept for 1 week under these conditions before behavioral test. On the day of test rats were allowed to acclimate to the testing room for at least 30 min before test compound administration. Rats were randomly assigned into 4 groups.
Vehicle was 0.1% Tween-80 and 0.5% carboxymethylcellulose to which respective amount of PRX-P4-003 was added to obtain a clear solution.
Animals were p.o. administered with Veh or 3 doses of PRX-P4-003 [1, 5 or 10 mg/kg equivalent dose of active compound PRX-002 (−)] at 60 min before spontaneous locomotor activity (sLMA) test.
The rat was placed at the center of test chamber for the 60 min sLMA video recording. 60 min of spontaneous locomotion activity was video recorded and off line analyzed with Animal Behavior Video Tracking Analysis System (Ji Liang Software Technology Co., Ltd., Shanghai, China). Total traveling distance (cm) and duration (sec) of locomotor activity of every 15 min is presented FIGS. 11A and 11B.

[3] = system: spontaneous locomotor activity; assay: Spontaneous locomotor activity (sLMA), intravenous administration; format: in vivo, Male SD rats; details: i.v. 25.8 mg/kg, equivalent to 10 mg/kg of PRX-002 (−), 90 min recording, vs vehicle
Protocol: Male SD rats were intravenously administered with PRX-002(−) (2 mg/kg) and prodrug PRX-P4-003 [(25.8 mg/kg, equivalent to 10 mg/kg of PRX-002 (−)], and vehicle just before sLMA test.
Vehicle was: 10% PEG 400 (v/v)+30% (v/v) of (50% w/v) Hydroxypropyl-ß-cyclodextrin in water+60% (v/v) sterile water for injection (SWFI): 1 ml/kg volume.
PRX-P4-003 solution was: 25.8 mg/ml PRX-P4-003 (25.8 mg/kg: equivalent to 10 mg/ml active drug, i.v. @volume of 1 ml/kg). 42.3 mg PRX-P4-003 was added to vehicle 1.639 ml, vortexed for 30 min under room temperature to get a uniform suspension solution, suspension solution was continuously stirred during dosage.
The PRX-P4-002(−) solution was: 2 mg/ml PRX-P4-002(−) (2 mg/kg, i.v.@volume of 1 ml/kg). 4.5 mg PRX-002(−) was added to 2.25 ml Vehicle, vortexed for 30 min under room temperature to get a clear solution, the solution was continuously stirred during dosage.
Rat was placed at the center of test chamber for the 90 min sLMA video recording. (n=3/group).

Question: With `CCCCCCCCCCCCCCCCCC(=O)OCOC(=O)N(CC)C1C2CCC(C2)C1c1ccccc1` (single isomer, unassigned) [PRX-P4-003, N-(Octadecanoyloxymethoxycarbonyl)-(−)-N-ethyl-3-phenylbicyclo[2.2.1]heptan-2-amine] as the compound, how does the “Prodrug form present in the plasma” value ([1]; PRX-P4-003 administered orally (FIG. 4)) read?
Answer: The value was “almost none”.

Question: And the “Plasma concentration of PRX-P4-003” value ([1]; PRX-P4-003 oral 5 mg/kg b.w., 0.00 h)?
Answer: The value was 0.00.

Question: And the “Plasma concentration of PRX-P4-003” value ([1]; PRX-P4-003 oral 5 mg/kg b.w., 0.08 h)?
Answer: Its value is 0.00.

Question: And the “Plasma concentration of PRX-P4-003” value ([1]; PRX-P4-003 oral 5 mg/kg b.w., 0.25 h)?
Answer: Its value is 0.00.

Question: What about the “Plasma concentration of PRX-P4-003” value ([1]; PRX-P4-003 oral 5 mg/kg b.w., 0.50 h) of the same compound?
Answer: Its value is 0.00.

Question: What about the “Plasma concentration of PRX-P4-003” value ([1]; PRX-P4-003 oral 5 mg/kg b.w., 1.00 h) of the same compound?
Answer: The value was 0.00.

Question: And the “Plasma concentration of PRX-P4-003” value ([1]; PRX-P4-003 oral 5 mg/kg b.w., 2.00 h)?
Answer: Its value is 0.00.

Question: What about the “Plasma concentration of PRX-P4-003” value ([1]; PRX-P4-003 oral 5 mg/kg b.w., 4.00 h) of the same compound?
Answer: Its value is 0.00.

Question: And the “Plasma concentration of PRX-P4-003” value ([1]; PRX-P4-003 oral 5 mg/kg b.w., 6.00 h)?
Answer: Its value is 0.00.

Question: And the “Plasma concentration of PRX-P4-003” value ([1]; PRX-P4-003 oral 5 mg/kg b.w., 24.00 h)?
Answer: The value was 0.00.

Question: What about the “AUC% extrap of PRX-P4-003” value ([1]; PRX-P4-003 oral 5 mg/kg, 5 mg/kg) of the same compound?
Answer: Its value is 0.0 ± 0.0% and 0.0%.

Question: What about the “Plasma concentration of PRX-P4-003” value ([1]; PRX-P4-003 oral 10 mg/kg b.w., 0.00 h) of the same compound?
Answer: The value was 0.00.

Question: What about the “Plasma concentration of PRX-P4-003” value ([1]; PRX-P4-003 oral 10 mg/kg b.w., 0.08 h) of the same compound?
Answer: Its value is 0.00.

Question: What about the “Plasma concentration of PRX-P4-003” value ([1]; PRX-P4-003 oral 10 mg/kg b.w., 0.25 h) of the same compound?
Answer: The value was 0.00.

Question: And the “Plasma concentration of PRX-P4-003” value ([1]; PRX-P4-003 oral 10 mg/kg b.w., 0.50 h)?
Answer: Its value is 0.00.

Question: And the “Plasma concentration of PRX-P4-003” value ([1]; PRX-P4-003 oral 10 mg/kg b.w., 1.00 h)?
Answer: The value was 0.00.

Question: And the “Plasma concentration of PRX-P4-003” value ([1]; PRX-P4-003 oral 10 mg/kg b.w., 2.00 h)?
Answer: The value was 0.00.

Question: What about the “Plasma concentration of PRX-P4-003” value ([1]; PRX-P4-003 oral 10 mg/kg b.w., 4.00 h) of the same compound?
Answer: The value was 0.00.

Question: What about the “Plasma concentration of PRX-P4-003” value ([1]; PRX-P4-003 oral 10 mg/kg b.w., 6.00 h) of the same compound?
Answer: Its value is 0.00.

Question: And the “Plasma concentration of PRX-P4-003” value ([1]; PRX-P4-003 oral 10 mg/kg b.w., 24.00 h)?
Answer: Its value is 0.00.

Question: And the “AUC% extrap of PRX-P4-003” value ([1]; PRX-P4-003 oral 10 mg/kg)?
Answer: Its value is 0.0%.

Question: And the “Active PRX-002 (−) Isomer formed in plasma” value ([1]; PRX-P4-003 oral administration (FIG. 2, FIG. 4))?
Answer: Its value is “desired plasma concentration”.

Question: What about the Tmax ([1]; Sprague Dawley, PRX-P4-003 oral 10 mg/kg, read-out: Tmax of PRX-P4-003) of the same compound?
Answer: The Tmax was 0 h.

Question: And the Tmax ([1]; Sprague Dawley, oral 5 mg/kg [equivalent to PRX-002 (−)], analyte: prodrug in plasma, read-out: Oral PK Parameters Tmax, Prodrug)?
Answer: Its Tmax is 0 h.

Question: What about the Tmax ([1]; Sprague-Dawley, PRX-P4-003 oral 5 mg/kg, read-out: Tmax of PRX-P4-003) of the same compound?
Answer: The Tmax was 0 h.

Question: What about the “Spontaneous locomotor activity (sLMA): total traveling distance and duration” value [2] of the same compound?
Answer: The value was “dose dependent increase in sLMA; also recorded: both traveling distance and locomotion duration increased”.

Question: What about the “Spontaneous locomotor activity (sLMA): total traveling distance and duration” value [3] of the same compound?
Answer: Its value is “no increase in sLMA; also recorded: practically no change”.
